The values that follow come from patent publication US11999759B2, “Boronic acid derivatives and therapeutic uses thereof” (Qpex Biopharma, Inc., priority 2016, dated 2024).

Data set [1] can be described thus: Stability of compound 13 prodrugs in human serum. The conditions noted are these: 37° C., prodrug 50.0 μg/mL. The data set is classed as in vitro ADME. Here is the method: The rate of hydrolysis for several prodrugs of 13 was evaluated in vitro by measuring their stability in human serum and human liver microsomes. All serum stability experiments were conducted by aliquoting 10 μL of test compound at 500 μg/mL (10× final concentration) in 95:5 water:acetonitrile v/v into 1.5 mL Eppendorf tubes. […] The tubes were then warmed to 37° C. in a water bath along with human serum (Bioreclamations) in a separate tube. Serum esterase activity for each lot of serum used was established by assaying an unrelated ester prodrug as a control. To initiate the reaction, 90 μL of serum was added to tubes for all timepoints using a repeating-tip pipette, thereby bringing the final concentration of test compound to 50 μg/mL and the final concentration of acetonitrile to 0.5% v/v. At each timepoint, the reaction was halted and serum proteins precipitated through the addition of an equal volume of cold acetonitrile containing 25 μg/mL diclofenac as an internal standard. […] Sample analysis for serum stability experiments was conducted using an Agilent 1100 binary pump HPLC equipped with a diode array detector set to monitor absorbance at 286 nm (8 nm bandwidth). […] The samples were analyzed together with appropriate blanks in order to ensure specificity. […] The rate of activation was determined by monitoring the concentration of test compound as follows. The peak area for the analyte was divided by the peak area for the internal standard to give an area ratio. The area ratio for each timepoint was divided by the area ratio for timepoint 0 to give the percent remaining at each timepoint. The natural logarithm of the percent remaining versus time was plotted using Microsoft Excel and fitted to a linear trendline.

A short description of data set [2]: Stability of compound 13 prodrugs in human liver microsomes (HLM). The data set is classed as in vitro ADME. The settings on record: 0.500 mg/mL human liver microsomes, no cofactors, prodrug 1.00 μM. The protocol:
In the meantime, a 20.0 mg/mL solution of human liver microsomes (XenoTech, LLC) was diluted to 1.00 mg/mL (2× final concentration). Esterase activity for each lot of microsomes used was established by assaying an unrelated ester prodrug as a control. Both the Eppendorfs for each timepoint and the diluted liver microsomes were then warmed to 37° C. in a water bath. No cofactors (e.g. NADPH) were added to ensure that only hydrolytic reactions as opposed to reactions mediated by other cofactor-dependent enzymes (e.g. CYP450 enzymes) would take place. To initiate the reaction, 50 μL of diluted human liver microsomes was added to tubes for all timepoints using a repeating-tip pipette, thereby bringing the final concentration of test compound to 1.00 μM and the final concentration of human liver microsomes to 0.500 mg/mL. At each timepoint, the reaction was halted and proteins precipitated through the addition of 200 μL of 10:45:45 water:methanol:acetonitrile v/v/v containing an unrelated ester prodrug at 250 ng/mL as an internal standard. […] Sample analysis for microsome stability experiments was conducted using a 20.0 μL injection on a LEAP PAL autosampler with Agilent 1100 binary pump HPLC coupled to an AB Sciex 3200 QTrap mass spectrometer. […] Detection was in positive mode; source parameters and parent-daughter ion selection criteria were chosen as needed for each compound to achieve an appropriate limit of detection and signal-to-noise ratio. The samples were analyzed together with appropriate blanks in order to ensure specificity. The rate of hydrolysis for each prodrug was determined by monitoring the concentration of test compound as follows. The peak area for the analyte was divided by the peak area for the internal standard to give an area ratio. The area ratio for each of the two replicates at each timepoint was divided by the area ratio for timepoint 0 to give the percent remaining at each timepoint. The natural logarithm of the percent remaining versus time for all replicates was plotted using Microsoft Excel and fitted to a linear trendline.
A general note: Liver microsomes are a subcellular fraction often used to study metabolism.

Data set [3] concerns the target CTX-M-14 (Escherichia coli, UniProt Q9L5C7). Nature of the data set: Inhibition of nitrocefin cleavage by purified CTX-M-14. The class given is biochemical. The conditions noted are these: nitrocefin reporter substrate; 10 min preincubation at room temperature; read-out: Ki (CTX-M-14, NCF). The protocol:
(§1) Ki values of inhibition of purified class A, C and D enzymes were determined spectrophotometrically using nitrocefin as reporter substrate. Purified enzymes were mixed with various concentrations of inhibitors in reaction buffer and incubated for 10 min at room temperature. Nitrocefin was added and substrate cleavage profiles were recorded at 490 nm every 10 sec for 10 min.

The target of data set [4] is KPC-2 (Klebsiella pneumoniae, UniProt Q9F663). Nature of the data set: Inhibition of nitrocefin cleavage by purified KPC-2. The data set is classed as biochemical. The settings on record: nitrocefin reporter substrate; 10 min preincubation at room temperature; read-out: Ki (KPC-2, NCF). Here is the method:
(§2) Ki values of inhibition of purified class A, C and D enzymes were determined spectrophotometrically using nitrocefin as reporter substrate. Purified enzymes were mixed with various concentrations of inhibitors in reaction buffer and incubated for 10 min at room temperature. Nitrocefin was added and substrate cleavage profiles were recorded at 490 nm every 10 sec for 10 min. These experiments confirmed that the described compounds are inhibitors with a broad-spectrum of activity towards various β-lactamases.

Data set [5] deals with P99 (Enterobacter cloacae, UniProt P05364). In words: biochemical. The settings on record: nitrocefin reporter substrate; 10 min preincubation at room temperature; read-out: Ki (P99, NCF). The protocol: as §1
Sequence of P99 (P05364 21-381): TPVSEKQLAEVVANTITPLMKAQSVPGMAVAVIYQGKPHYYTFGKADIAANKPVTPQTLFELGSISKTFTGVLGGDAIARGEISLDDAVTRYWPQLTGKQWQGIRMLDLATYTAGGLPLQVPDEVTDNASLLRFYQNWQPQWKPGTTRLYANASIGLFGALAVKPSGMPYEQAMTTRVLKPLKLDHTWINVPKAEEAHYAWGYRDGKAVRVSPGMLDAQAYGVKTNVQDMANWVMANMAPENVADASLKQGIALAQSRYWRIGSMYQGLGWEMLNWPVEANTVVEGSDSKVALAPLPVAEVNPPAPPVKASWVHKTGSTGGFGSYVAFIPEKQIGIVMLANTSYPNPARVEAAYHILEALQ
In data set [6] the target is Pa-AmpC (Pseudomonas aeruginosa, UniProt P24735). In words: biochemical. The settings on record: nitrocefin reporter substrate; 10 min preincubation at room temperature; read-out: Ki (Pa-AmpC, NCF). Here is the method: as §1
Sequence of Pa-AmpC (P24735 27-397): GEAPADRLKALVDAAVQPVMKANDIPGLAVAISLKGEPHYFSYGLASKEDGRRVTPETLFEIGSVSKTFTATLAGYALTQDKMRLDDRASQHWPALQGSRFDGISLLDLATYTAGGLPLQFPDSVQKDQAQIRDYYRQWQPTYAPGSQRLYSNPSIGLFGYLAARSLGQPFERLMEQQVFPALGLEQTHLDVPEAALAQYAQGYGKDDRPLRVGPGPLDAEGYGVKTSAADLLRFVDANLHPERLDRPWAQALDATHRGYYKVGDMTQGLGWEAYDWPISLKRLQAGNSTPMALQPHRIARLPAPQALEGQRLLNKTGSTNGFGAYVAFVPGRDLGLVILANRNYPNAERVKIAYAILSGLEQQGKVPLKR
In data set [7] the target is OXA-48 (Klebsiella pneumoniae, UniProt Q6XEC0). Nature of the data set: Inhibition of nitrocefin cleavage by purified OXA-48. The class given is biochemical. The conditions noted are these: nitrocefin reporter substrate; 10 min preincubation at room temperature; read-out: Ki (OXA-48, NCF). The protocol:
as §2

The target of data set [8] is OXA-23 (Acinetobacter baumannii, UniProt Q9L4P2). Nature of the data set: Inhibition of nitrocefin cleavage by purified OXA-23. The class given is biochemical. The settings on record: nitrocefin reporter substrate; 10 min preincubation at room temperature; read-out: Ki (OXA-23, NCF). The protocol: as §2
Sequence of OXA-23 (Q9L4P2 18-273): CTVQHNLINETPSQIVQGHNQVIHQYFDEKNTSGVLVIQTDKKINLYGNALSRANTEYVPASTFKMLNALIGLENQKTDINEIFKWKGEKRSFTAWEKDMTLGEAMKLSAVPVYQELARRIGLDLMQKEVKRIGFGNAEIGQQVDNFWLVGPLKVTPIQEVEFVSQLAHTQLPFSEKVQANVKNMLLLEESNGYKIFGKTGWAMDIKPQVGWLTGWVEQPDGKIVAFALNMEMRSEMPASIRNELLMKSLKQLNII
Data set [9] has as its target VIM-1 (Pseudomonas aeruginosa, UniProt A0A0F7KYQ8). In words: Inhibition of nitrocefin cleavage by purified VIM-1. The data set is classed as biochemical. The conditions noted are these: nitrocefin reporter substrate; 10 min preincubation at room temperature; read-out: Ki (VIM-1, NCF).
Data set [10] concerns the target NDM-1 (Klebsiella pneumoniae, UniProt C7C422). In words: Inhibition of imipenem cleavage by purified NDM-1. The data set is classed as biochemical. The conditions noted are these: imipenem reporter substrate; 37° C.; read-out: Ki (NDM-1, IMI). Here is the method:
Purified enzymes were mixed with various concentrations of inhibitors in reaction buffer and incubated for 10 min at room temperature. Imipenem was added and substrate cleavage profiles were recorded at 294 nm every 30 seconds for 30 minutes at 37° C.

For data set [11], the target named is IMP-1 (Serratia marcescens, UniProt P52699). Nature of the data set: Inhibition of imipenem cleavage by purified IMP-1. The conditions noted are these: imipenem reporter substrate; 37° C.; read-out: Ki (IMP-1, IMI). The class given is biochemical. The protocol:
Ki values of inhibition of purified class B enzymes NDM-1 and IMP-1 were determined spectrophotometrically using imipenem as reporter substrate. Purified enzymes were mixed with various concentrations of inhibitors in reaction buffer and incubated for 10 min at room temperature. Imipenem was added and substrate cleavage profiles were recorded at 294 nm every 30 seconds for 30 minutes at 37° C. These experiments further confirmed that the described compounds have the ability to inhibit carbapenemase activity of metallo-beta-lactamases.

Data set [12] has as its system PAM1032/KPC-2 (overexpressed MexAB-OprM). Nature of the data set: Biapenem potentiation (MPC64) in PAM1032/KPC-2. The data set is classed as cell-based, Pseudomonas aeruginosa. On the set-up: PAM1032/KPC-2 Biapenem MPC64: unit not given here. The conditions noted are these: BLI potency to decrease biapenem MIC 64-fold, from 32 to 0.5 μg/ml; efflux proficient strain. The protocol:
(§3) Efflux of BLIs from Pseudomonas aeruginosa by the MexAB-OprM efflux pump was also evaluated. The plasmid expressing the gene encoding KPC-2 was introduced into two strains of P. aeruginosa, PAM1032 and PAM1154 that overexpressed or lacked MexAB-OprM, respectively. Due to expression of KPC-2 both strains became resistant to biapenem. […] Potency of BLIs to potentiate biapenem in these strains was determined. […] The ratio of MPC64 values for each BLI in PAM1032/KPC-2 (efflux proficient) and PAM1154/KPC-2 (efflux deficient) was determined to generate the Efflux Index (EI) as shown in Table 8.

The test system of data set [13] is PAM1154/KPC-2 (lacked MexAB-OprM). In words: Biapenem potentiation (MPC64) in PAM1154/KPC-2. The class given is cell-based, Pseudomonas aeruginosa. Also noted: PAM1154/KPC-2 Biapenem MPC64: unit not given here. The settings on record: BLI potency to decrease biapenem MIC 64-fold, from 32 to 0.5 μg/ml; efflux deficient strain. The protocol: as §3

Sequence of KPC-2 (Q9F663 25-293 limits assumed): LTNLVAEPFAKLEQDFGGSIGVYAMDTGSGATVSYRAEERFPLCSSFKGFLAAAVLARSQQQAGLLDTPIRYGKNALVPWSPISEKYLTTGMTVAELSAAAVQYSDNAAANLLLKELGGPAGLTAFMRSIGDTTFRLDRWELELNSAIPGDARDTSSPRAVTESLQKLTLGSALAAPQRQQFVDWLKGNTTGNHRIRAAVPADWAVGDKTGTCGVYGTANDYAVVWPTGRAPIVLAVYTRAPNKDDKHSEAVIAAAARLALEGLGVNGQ
Sequence of IMP-1 (P52699 19-246, looked up, species assumed): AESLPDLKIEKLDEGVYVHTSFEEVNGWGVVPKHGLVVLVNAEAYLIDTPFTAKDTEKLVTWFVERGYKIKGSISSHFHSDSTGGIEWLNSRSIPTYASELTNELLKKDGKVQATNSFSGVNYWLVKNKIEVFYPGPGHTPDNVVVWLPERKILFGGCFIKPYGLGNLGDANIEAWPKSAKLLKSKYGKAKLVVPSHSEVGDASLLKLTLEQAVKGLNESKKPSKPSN
Sequence of OXA-48 (Q6XEC0 23-265, looked up): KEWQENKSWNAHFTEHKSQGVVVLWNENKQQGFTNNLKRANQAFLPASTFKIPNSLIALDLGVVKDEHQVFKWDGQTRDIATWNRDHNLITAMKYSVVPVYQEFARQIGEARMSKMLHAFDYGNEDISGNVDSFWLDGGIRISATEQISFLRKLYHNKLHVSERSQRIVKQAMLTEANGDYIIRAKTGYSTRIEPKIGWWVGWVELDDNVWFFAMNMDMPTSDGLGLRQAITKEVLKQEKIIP
Sequence of CTX-M-14 (Q9L5C7 29-291, species assumed): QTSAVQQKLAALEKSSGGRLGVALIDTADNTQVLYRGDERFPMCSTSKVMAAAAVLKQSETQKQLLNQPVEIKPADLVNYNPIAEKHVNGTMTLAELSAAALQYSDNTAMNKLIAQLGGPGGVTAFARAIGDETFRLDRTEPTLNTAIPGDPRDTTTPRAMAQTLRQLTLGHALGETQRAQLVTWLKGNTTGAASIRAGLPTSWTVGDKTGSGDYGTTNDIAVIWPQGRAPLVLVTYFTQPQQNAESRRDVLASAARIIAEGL
Sequence of NDM-1 (C7C422 29-270, looked up, species assumed): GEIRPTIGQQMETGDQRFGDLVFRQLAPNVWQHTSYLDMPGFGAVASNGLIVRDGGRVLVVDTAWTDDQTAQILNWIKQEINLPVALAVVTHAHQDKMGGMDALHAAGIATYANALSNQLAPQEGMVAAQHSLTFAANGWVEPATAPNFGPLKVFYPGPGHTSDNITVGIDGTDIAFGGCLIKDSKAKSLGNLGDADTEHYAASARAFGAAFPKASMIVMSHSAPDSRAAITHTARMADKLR

As to `O=C(OCOC(=O)c1c(F)ccc2c1OB(O)[C@@H]1C[C@H]21)OC1COC1` [Compound 32, Oxetan-3-yloxycarbonyloxymethyl (1aR,7bS)-5-fluoro-2-hydroxy-1a,7b-dihydro-1H-cyclopropa[c][1,2]benzoxaborinine-4-carboxylate], in data set [1], the “% of initial area ratio at t = 0 min” value was 100%, the “% of initial area ratio at t = 5 min” value is listed as 86.8%, the “% of initial area ratio at t = 10 min” value was found to be 77.2% and the “% of initial area ratio at t = 30 min” value was found to be 38.7%.
Regarding `Cc1oc(=O)oc1COC(=O)c1c(F)ccc2c1OB(O)[C@@H]1C[C@H]21` [Compound 33, (5-Methyl-2-oxo-1,3-dioxol-4-yl)methyl (1aR,7bS)-5-fluoro-2-hydroxy-1a,7b-dihydro-1H-cyclopropa[c][1,2]benzoxaborinine-4-carboxylate], in data set [1], the “% of initial area ratio at t = 0 min” value was 100%, the “% of initial area ratio at t = 5 min” value was determined as 48.4%, the “% of initial area ratio at t = 10 min” value was 15.4% and the “% of initial area ratio at t = 30 min” value came out at 0%.
Consider `O=C(OCOC(=O)C1CCOCC1)c1c(F)ccc2c1OB(O)[C@@H]1C[C@H]21` [Compound 39, Tetrahydropyran-4-carbonyloxymethyl (1aR,7bS)-5-fluoro-2-hydroxy-1a,7b-dihydro-1H-cyclopropa[c][1,2]benzoxaborinine-4-carboxylate], for which, in data set [1], the “% of initial area ratio at t = 0 min” value was 100%, the “% of initial area ratio at t = 5 min” value amounted to 69.3%, the “% of initial area ratio at t = 10 min” value turned out to be 59.4% and the “% of initial area ratio at t = 30 min” value was 41.1%.
For `CC(=O)OCC(=O)OCOC(=O)c1c(F)ccc2c1OB(O)[C@@H]1C[C@H]21` [Compound 42, (2-Acetoxyacetyl)oxymethyl (1aR,7bS)-5-fluoro-2-hydroxy-1a,7b-dihydro-1H-cyclopropa[c][1,2]benzoxaborinine-4-carboxylate], in data set [1], the “% of initial area ratio at t = 0 min” value came out at 100%, the “% of initial area ratio at t = 5 min” value is on record as 29.1%, the “% of initial area ratio at t = 10 min” value is reported as 8.1% and the “% of initial area ratio at t = 30 min” value came out at 0%. The “Average % of initial area ratio at t = 0 min” value in data set [2] (t = 0 min) came to 100%. For the same compound, the “Average % of initial area ratio at t = 5 min” value in [2] (t = 5 min) is 27.1%. Besides, the “Average % of initial area ratio at t = 10 min” value in data set [2] (t = 10 min) is listed as 10.3%. The “Average % of initial area ratio at t = 30 min” value in data set [2] (t = 30 min) was 0.4%. The half-life at 1 μM in data set [2] (pH 7.4, read-out: Estimated half-life (minutes) (rounded to nearest integer value)) is 4 min.
Regarding `O=C(O)c1cccc2c1OB(O)[C@H]1C[C@@H]21` [Compound 18, (1aS,7bR)-2,2-dihydroxy-1a,7b-dihydro-1H-cyclopropa[c][1,2]benzoxaborinine-4-carboxylic acid], the Ki in [3] was < 100 nM; in data set [4], < 100 nM; in data set [5], 100 to 1000 nM; in [6], 100 to 1000 nM; in data set [7], < 100 nM; in data set [8] it was 100 to 1000 nM. Further, the Ki in data set [9] is 100 to 1000 nM; in data set [10], < 100 nM; in [11], > 1000 nM. Moreover, the “PAM1032/KPC-2 Biapenem MPC64” value in data set [12] is given as 5. Also, in [13], the “PAM1154/KPC-2 Biapenem MPC64” value came out at 0.3.
On to `COc1ccc2c(c1C(=O)O)OB(O)[C@@H]1C[C@H]21` [Compound 3, (1aR,7bS)-2-hydroxy-5-methoxy-1a,7b-dihydro-1H-cyclopropa[c][1,2]benzoxaborinine-4-carboxylic acid], for which the Ki in [3], in data set [4], in data set [5], in data set [6], in data set [7] and in [8] was < 100 nM each time. The Ki in data set [9], in data set [10] and in data set [11] was < 100 nM throughout. In [12], the “PAM1032/KPC-2 Biapenem MPC64” value came out at 5. Also, the “PAM1154/KPC-2 Biapenem MPC64” value in data set [13] is reported as 2.5.

By half-life is commonly meant the time needed for the level to fall by half in the phase considered. Usually Ki stands for the dissociation constant of the complex between target and ligand, obtained from inhibition or displacement.
